Test results as given in article PMC7782499, “Progerinin, an optimized progerin-lamin A binding inhibitor, ameliorates premature senescence phenotypes of Hutchinson-Gilford progeria syndrome” (Communications Biology, 2021).
Values joined by “and” are separate entries in the source; they are usually repeats but may differ in a detail not shown here. Identical values can stand only once.

Tested on: Lmna G609G/+ mouse
Assay: Body weight of Lmna G609G/+ mice
Format: in vivo
Conditions: oral administration, relative body weight; for Lmna G609G/+ body weight, Ave: group average; for Lmna G609G/+ body weight: individual mouse
Excerpt: Fig. 3 In vivo favorable effect of SLC-D011. A Gross morphology of Lmna^G609G/G609G mice (10 weeks old) was ameliorated after injection with SLC-D011. At the same age, the experimental group (D011) of mice were larger than vehicle-injected control (Con) subjects regardless of gender. B, C SLC-D011 increases body weight B and extends life span C of Lmna^G609G/G609G progeria model mouse (Con: n = 8; SLC-D011: n = 8). Compared with 14.8 weeks of average (ave) life span with maximum (max) life span of 15.5 weeks, 20 mg/kg of intraperitoneal (i.p) injection (twice a week) of SLC-D011 could extend the life span upto 19 weeks (max = 21 weeks). Lmna^G609G/G609G mice were injected with SLC-D011 from age of 5-week old, *p < 0.05. D Gross morphology of SLC-D011 injected Lmna^G609G/+ mouse. […] E SLC-D011 increases body weights of Lmna^G609G/+ mice (Con: n = 10; SLC-D011: n = 11), *p < 0.05. F Favorable effect of SLC-D011 on life span of Lmna^G609G/+ mice. Compared with vehicle-injected control group (ave = 46.7 weeks and max = 48 weeks), SLC-D011 treatment obviously extended the average life span to 63 weeks (max = 64 weeks). The injection was started from 32 weeks old, **p < 0.001. “Con” means vehicle (a solvent composed of DMSO and PBS)-injected mouse group. TEXT PRINTED IN THE PICTURE: (C) D011: Kaplan-Meier survival curve in Lmna^G609G/G609G: Ave=19; Kaplan-Meier survival curve in Lmna^G609G/G609G: Max=21 | (F) D011: Kaplan-Meier survival curve in Lmna^G609G/+: Ave=63; Kaplan-Meier survival curve in Lmna^G609G/+: Max=64 DOUBTS OF THE COPYIST ABOUT THIS PICTURE: Panels C and F: the Ave/Max labels are not printed with a group name. They are assigned to D011 (solid curve) or Con (dashed curve) only by their position beside the curves. / Panel C Ave=14.8, Max=15.5 and panel F Ave=46.7, Max=48 stand beside the dashed Con curve. They are left out because Con is the control group, not a substance. / No unit is printed with the Ave/Max values. Only the axis reads Age (weeks).
Animal experiments were performed in a facility certified by the Association for Assessment and Accreditation of Laboratory Animal Care in compliance with animal policies approved by Pusan National University. The mouse work was performed under the study protocol PNU-2019-2181, as approved by the Institutional Animal Care and Use Committee. Lmna^G609G/609G mice were generated by timed mating of heterozygous Lmna^G609G/+ provided by Carlos López-Otín (Universidad de Oviedo, Asturias, Oviedo, Spain). SLC-D011 was mixed with dimethyl sulfoxide (DMSO) and phosphate-buffered saline (PBS). It was then intraperitoneally injected into mice (20 mg/kg twice per week from 5-week-old). SLC-D011 and lonafarnib were orally administrated to mice daily at a concentration of 10 mg/ml in monoolein-based solution. Lonafarnib was generously provided by Merck, the Progeria Research Foundation (PRF) and the PRF Lonafarnib Pre-clinical Drug Supply Program. Control mice were treated with monoolein-based solution alone in the same way. Lmna^G609G/609G mice were treated with clear chemical solution throughout the life span, starting from 5 weeks of age. Lmna^G609G/+ mice were treated via intraperitoneal and oral administrations, starting from 32 weeks of age.
Fig. S10. Or al administration of SLC-D011 suppresses premature aging features of LmnaG609G/+ mi c e . A.
Gross morphology of SLC-D011 treated Lmna G609G/+ mice at 36 weeks old. B. Oral administration of SLC-
D011 increases body weight s of LmnaG609G/+ mi c e (untreated: n=11; SLC-D011: n=12), * p<0.05. C. […]
intensity of H3K9me3 levels in lung, liver, and kidney tissues of age-matched Lmn a +/+ mouse, untreated
LamnG609G/+ mouse and two progerinin- treated LmnaG609G/+ mice (n = 2 independent experiments; one
Student’s t -test), **p < 0.001,*p< 0.05, N.S: not significant .AU, arbitrary units.
Fig. S12. […] A. SLC-D011, compar ed to lonafarnib, reduces […]

Compound: NC(=O)N1CCC(CC(=O)N2CCC([C@H]3c4ncc(Br)cc4CCc4cc(Cl)cc(Br)c43)CC2)CC1 [lonafarnib, reference compound]
- Lmna G609G/+ body weight, Ave (week 36): 1
- Lmna G609G/+ body weight (week 36): 1
- Lmna G609G/+ body weight, Ave (week 38): 0.9406
- Lmna G609G/+ body weight (week 38): 0.9091 and 0.9 and 0.96 and 0.95 and 0.913 and 0.9565
- Lmna G609G/+ body weight, Ave (week 40): 0.9202
- Lmna G609G/+ body weight (week 40): 0.8636 and 0.85 and 0.92 and 0.9 and 0.96 and 0.913 and 0.9565 and 0.95 and 0.9091
- Lmna G609G/+ body weight, Ave (week 42): 0.88
- Lmna G609G/+ body weight (week 42): 0.8636 and 0.8 and 0.84 and 0.85 and 0.92 and 0.913 and 0.88 and 0.9091
- Lmna G609G/+ body weight, Ave (week 44): 0.8157
- Lmna G609G/+ body weight (week 44): 0.7727 and 0.7 and 0.8 and 0.88 and 0.7273 and 0.8182 and 0.85
- Lmna G609G/+ body weight, Ave (week 46): 0.7411
- Lmna G609G/+ body weight (week 46): 0.7273 and 0.65 and 0.72 and 0.75 and 0.76 and 0.7 and 0.8182 and 0.8
- Lmna G609G/+ body weight, Ave (week 48): 0.6808
- Lmna G609G/+ body weight (week 48): 0.6818 and 0.6 and 0.64 and 0.75 and 0.68 and 0.7 and 0.7273 and 0.72
- Lmna G609G/+ body weight, Ave (week 50): 0.6132
- Lmna G609G/+ body weight (week 50): 0.5909 and 0.55 and 0.6 and 0.7 and 0.64 and 0.5 and 0.6957 and 0.65 and 0.6818
- Lmna G609G/+ body weight, Ave (week 52): 0.4605
- Lmna G609G/+ body weight (week 52): 0.4545 and 0 and 0.4 and 0.55 and 0.48 and 0.5217 and 0.6957 and 0.5 and 0.44
- Lmna G609G/+ body weight, Ave (week 54): 0.1559
- Lmna G609G/+ body weight (week 54): 0.4545 and 0 and 0.44 and 0.5217
